{
  "source": "patent US20190192458A1",
  "about": "“THERAPEUTIC/PROPHYLACTIC AGENT FOR GRAFT-VERSUS-HOST DISEASE, FIBROCYTE INVASION INHIBITOR, AND INHIBITOR AGAINST TEAR REDUCTION AND REDUCTION IN GOBLET CELLS” (KEIO UNIVERSITY, priority 2016, published 2019)",
  "key": {"CTGF": {"tested_on": "CTGF", "assay": "Immunoblot analysis of fibrosis marker CTGF in organs", "format": "in vivo, mouse", "details": "PBA-treated vs vehicle-treated organs, n=4, P<0.05, FIG. 5B, 5C", "experimental": "Bone marrow transplantation was performed as described in the above section “Bone marrow transplantation,” and the resulting allogeneic bone marrow transplantation recipient mice were divided into two groups. One group was treated with intraperitoneal injection of PBA (10 mg/kg) (Aldrich) while the other was treated with intraperitoneal injection of a solvent vehicle⋅phosphate buffered saline (PBS) (pH 7.4). The allogeneic bone marrow transplantation recipients received once-daily administration of PBA or the solvent vehicle from Day 10 to Day 27 after bone marrow transplantation. They were sacrificed on Day 28 after bone marrow transplantation. […]\nProteins of interest were visualized by either one of the following two methods. (1) A target protein was colorimetrically detected using a BCIP/NBT substrate (Promega). […]\nThe intensity of the resulting protein band was analyzed using image processing software ImageJ. […]\nWith regard to the secondary antibody, (1) either AP-conjugated anti-mouse IgG antibody (Promega) or AP-conjugated anti-rabbit IgG antibody (Promega) was used when protein bands were chromogenically visualized; (2) HRP-conjugated anti-mouse antibody (Thermo Fisher Scientific) or HRP-conjugated anti-rabbit antibody (Thermo Fisher Scientific) was used when target proteins were detected by ECL."}, "[1]": {"tested_on": "MCP-1, TNF-α, and IFN-γ in blood sera", "assay": "ELISA of inflammation markers in blood sera", "format": "in vivo, mouse", "details": "ELISA 28 days after bone marrow transplantation; PBA-treated vs vehicle-treated mice, n=4, P<0.05", "experimental": "(§1) Bone marrow transplantation was performed as described in the above section “Bone marrow transplantation,” and the resulting allogeneic bone marrow transplantation recipient mice were divided into two groups. One group was treated with intraperitoneal injection of PBA (10 mg/kg) (Aldrich) while the other was treated with intraperitoneal injection of a solvent vehicle⋅phosphate buffered saline (PBS) (pH 7.4). The allogeneic bone marrow transplantation recipients received once-daily administration of PBA or the solvent vehicle from Day 10 to Day 27 after bone marrow transplantation. They were sacrificed on Day 28 after bone marrow transplantation.\nBlood samples were withdrawn from PBA-treated mice and vehicle-treated mice, and centrifuged at 4000 rpm for 10 minutes. The levels of MCP-1, tumor necrosis factor-α (TNF-α), and interferon-γ (IFN-γ) in the resulting blood sera were measured using ELISA kits (Becton Dickinson). These assays were performed according to the protocol recommended by manufacturer Becton Dickinson."}, "[2]": {"tested_on": "mouse splenic macrophages", "assay": "Cultured splenic macrophages from PBA-treated and vehicle-treated mice (immunofluorescence, immunoblot, qPCR)", "format": "cell-based", "experimental": "as §1\nMouse splenic macrophages were cultured according to the Alatery and Besta method (Alatery A, Basta S, An efficient culture method for generating large quantities of mature mouse splenic macrophages. J Immunol Methods, 2008; 338: 47-57). Splenic cells suspended in RPMI containing 5% FBS were plated on a culture dish, and allowed to stand at 37° C. overnight. Subsequently, floating cells were removed. The desired cells adhering on the dish were cultured for 7 days in RPMI containing recombinant mouse M-CSF (5 ng/mL) (Peprotech Inc.), 5% of FBS, and 5% of the antibiotic. Induced macrophages were then detached from the culture dish by using accutase (Thermo Fisher Scientific), and used for experiments.\nThe induced macrophages were then transferred to an 8-well chamber slide (Fibronectin Culture Slide; Corning), and fixed with 10% neutral buffered formalin. Subsequently, they were blocked with methanol containing 0.3% hydrogen peroxide for 30 minutes at room temperature, and incubated with primary antibodies CD68 (AbD Serotec) and CHOP (Santa Cruz) overnight at 4° C. Then, the sections were treated with goat anti-mouse IgG (H+L) secondary antibody conjugated with Alexa Fluor 568 (Molecular Probes) and 4′,6-diamidino-2-phenylindole (DAPI) (Life Technologies) at room temperature for 45 minutes, and then mounted with an anti-fading mounting medium (Dako). Fluorescence images were captured under an LSM confocal microscope (Carl Zeiss).\nThe total RNA was extracted from the exorbital lacrimal gland, the proximal portion of the small intestine, the dorsal skin, the liver, the cultured fibroblasts, and the cultured macrophages using a miRNeasy mini kit (Qiagen), and the corresponding complementary DNAs were synthesized using a Rever Tra Ace qPCR RT kit (Toyobo Co., Ltd.). Primers used for analyzing the mRNA expression of the following genes with the TaqMan real-time polymerase chain reaction (PCR) were purchased from Applied Biosystems: housekeeping gene […] (GAPDH), glucose-regulated protein 78 (GRP78), Interleukin-1β (IL-1β), IL-6, IL-10, macrophage chemoattractant protein-1 (MCP-1), and transcription growth factor-β (TGF). A Step One Plus system (Applied Biosystems) was used to perform quantitative real time PCR, and the resulting data was analyzed by the 2^−ΔΔCT method. GAPDH was used as an internal standard for measuring the expression of mRNA.\nTissues of interest were each placed into an Eppendorf tube, and a pre-cooled RIPA buffer solution was then added to the tube. Subsequently, the tissues were each homogenized with an electric homogenizer. Samples were each allowed to stand on ice for 1 hour, and then centrifuged at 15000 rpm for 5 minutes at 4° C. Then, the supernatants were each collected in a fresh tube on ice, and used as a cell lysate. The cell lysates each received the same amount of a 5×Laemmli buffer solution, and each was heated at 100° C. for 5 minutes to denature proteins.\nAn aliquot of each sample having the same amount of proteins was loaded into a well of an SDS-PAGE gel, and then […]. Proteins were transferred from the gel to a membrane at 15 V for 20 minutes. The membrane was blocked at room temperature for 1 hour with 5% skim milk or 5% BSA (bovine serum albumin) in 1×TBST (a mixture of Tris-buffered saline and Tween 20). […]"}, "[3]": {"details": "splenic macrophages from PBA-treated vs vehicle-treated mouse, immunoblot, n=4"}, "[4]": {"details": "splenic macrophages, qPCR, n=4 to 5, PBA-treated vs vehicle-treated, FIG. 7E"}},
  "data": [
    {"smiles": "O=C(O)CCCc1ccccc1", "note": "[PBA, 4-phenyl-n-butyric acid]", "values": [
      {"measurement": "CTGF expression in organs", "setting": "CTGF", "result": "overexpressed in the vehicle-treated organs, but not in the PBA-treated organs"},
      {"measurement": "protein level of IFN-γ in blood sera", "setting": "[1]", "result": "lower protein levels"},
      {"measurement": "protein level of MCP-1 in blood sera", "setting": "[1]", "result": "lower protein levels"},
      {"measurement": "protein level of TNF-α in blood sera", "setting": "[1]", "result": "lower protein levels"},
      {"measurement": "CHOP expression in cultured splenic macrophages (immunofluorescence)", "setting": "[2]; splenic macrophages from PBA-treated vs vehicle-treated mouse, FIG. 7B", "result": "vehicle-treated splenic macrophages express CHOP in contrast with PBA-treated splenic macrophages"},
      {"measurement": "CHOP in splenic macrophages (immunoblot)", "setting": "[2]; [3]", "result": "substantially inhibited"},
      {"measurement": "GRP78 in splenic macrophages", "setting": "[2]; [3]", "result": "substantially inhibited"},
      {"measurement": "phosphorylated IRE1α in splenic macrophages", "setting": "[2]; [3]", "result": "substantially inhibited"},
      {"measurement": "phosphorylated PERK in splenic macrophages", "setting": "[2]; [3]", "result": "substantially inhibited"},
      {"measurement": "phosphorylated eIF2α in splenic macrophages", "setting": "[2]; [3]", "result": "substantially inhibited"},
      {"measurement": "gene expression of M1 macrophage marker IL-1β", "setting": "[2]; [4]", "result": "higher gene expressions"},
      {"measurement": "gene expression of M1 macrophage marker IL-6", "setting": "[2]; [4]", "result": "higher gene expressions"},
      {"measurement": "mRNA expression of M2 macrophage marker IL-10", "setting": "[2]; [4]", "result": "increased in the vehicle-treated macrophages as compared with the PBA-treated macrophages"},
      {"measurement": "mRNA expression of M2 macrophage marker TGF-β", "setting": "[2]; [4]", "result": "increased in the vehicle-treated macrophages as compared with the PBA-treated macrophages"}
    ]}
  ]
}
